Assay results from article PMC7699649 (Communications Biology, 2020).
No end group written: not given here.

What was measured:
[1] = system: Acinetobacter baumannii ATCC 17978; conditions: Supplementary Table 3; medium not stated; at least three biological replicates
Description: (§1) The antibacterial activity of the peptides was assessed through a modified twofold broth microdilution assay with modal MICs generated from at least three biological replicate experiments[20],[25]. The method broadly followed EUCAST methodology, with non-cation-adjusted Mueller Hinton or RPMI replacing cation-adjusted Mueller Hinton. Peptides and antibiotics were diluted in a twofold dilution in media down a 96 well plate. Bacteria were then added, back-diluted from an overnight culture, at a starting concentration of 5 × 10^5 CFU/ml. Plates were incubated, static at 37 C, for 20 h and the OD600 was determined using a Clariostar plate reader (BMG Labtech). […] Synergy was measured using standard microdilution checkerboard assays under the same conditions as the MICs[54]. Twofold dilution series of each peptide or antibiotic were prepared in separate 96 well plates and then combined into one before addition of bacteria. The growth/no growth interface was determined using the same definition as the MIC. The fractional inhibitory concentration was calculated from the most synergistic well on the plate for three independent repeats, and presented as the average +/− standard deviation. FIC is calculated as (MIC of compound A in combination with B/MIC of compound A alone) + (MIC of compound B in combination with A/MIC of compound B alone). MICs were determined on the same plates as the FICs to increase reproducibility.

[2] = system: Pseudomonas aeruginosa NCTC 13437; conditions: Supplementary Table 3; medium not stated; at least three biological replicates
Description: as §1

[3] = system: Pseudomonas aeruginosa PAO1; conditions: Supplementary Table 3; medium not stated; at least three biological replicates
Description: as §1

[4] = system: Acinetobacter baumannii AYE; conditions: Supplementary Table 3; medium not stated; at least three biological replicates
Description: as §1

[5] = system: VS Enterococcus faecalis NCTC 775; conditions: Supplementary Table 3; medium not stated; at least three biological replicates
Description: as §1

[6] = system: MS Staphylococcus aureus ATCC 9144; conditions: Supplementary Table 3; medium not stated; at least three biological replicates
Description: as §1

[7] = system: EMR Staphylococcus aureus-15 NCTC 13616; conditions: Supplementary Table 3; medium not stated; at least three biological replicates
Description: as §1

[8] = system: Klebsiella pneumoniae M6; conditions: Supplementary Table 3; medium not stated; at least three biological replicates
Description: as §1

[9] = system: EMR Staphylococcus aureus-16 NCTC 13277; conditions: Supplementary Table 3; medium not stated; at least three biological replicates
Description: as §1

[10] = system: VR Enterococcus faecium NCTC 12204; conditions: Supplementary Table 3; medium not stated; at least three biological replicates
Description: as §1

[11] = system: Klebsiella pneumoniae NCTC 13368; conditions: Supplementary Table 3; medium not stated; at least three biological replicates
Description: as §1

[12] = system: human red blood cells; test: Haemolysis assay; assay type: cell-based; conditions: human red blood cells in PBS, 1 h 37 °C, OD550, relative to 0.1% Triton-X-100; for concentration at which 10% haemolysis is achieved: three biological replicates
Description: Haemolysis was tested by incubating titrations of AMPs in PBS with freshly collected human red blood cells for 1 h at 37 °C. Control wells were treated with 0.1% Triton-X-100 to ensure complete lysis, or PBS-only to represent no lysis. Samples were spun down to remove non-lysed cells and the OD550 of the supernatant was measured using a Clariostar plate reader. The percentage of haemolysis was calculated as % haemolysis = (AP − AB)/(AC − AB) × 100, where AP is the absorbance value for a known peptide concentration, AC is the absorbance of the 0.1% Triton-X-100 control, AB is the absorbance of the PBS control. Data presented are averages and standard error from three biological replicate experiments.

[13] = system: Escherichia coli NCTC 12923; conditions: Supplementary Table 3; medium not stated; at least three biological replicates
Description: as §1

Molecule	Antibiogram, antibiotic concentration (MIC) [1]	Antibiogram, antibiotic concentration (MIC) [2]	Antibiogram, antibiotic concentration (MIC) [3]	Antibiogram, antibiotic concentration (MIC) [4]	Antibiogram, antibiotic concentration (MIC) [5]	Antibiogram, antibiotic concentration (MIC) [6]	Antibiogram, antibiotic concentration (MIC) [7]	Antibiogram, antibiotic concentration (MIC) [8]	Antibiogram, antibiotic concentration (MIC) [9]	Antibiogram, antibiotic concentration (MIC) [10]	Antibiogram, antibiotic concentration (MIC) [11]	Antibiogram, antibiotic concentration (MIC) [13]	concentration at which 10% haemolysis is achieved [12]	haemolysis at the highest concentration tested 400 µg/ml [12]
GWGSFFRRAAHVGRHVGRAALTHYL-NH2 [Pleurocidin-KR]	–	–	–	–	–	–	–	–	–	–	–	–	192 µg/mL	–
GWGSFFKKAAHAGKHAGKAALTHYL-NH2 [Pleurocidin-VA]	–	–	–	–	–	–	–	–	–	–	–	–	–	Neither pleurocidin-VA nor D-pleurocidin-VA induce detectable haemolysis
GWGSFFKKAAHVGKHVGKAALTHYL-NH2 [Pleurocidin, reference compound]	–	–	–	–	–	–	–	–	–	–	–	–	120 µg/mL	50%
Colistin	1 µg/mL	4 µg/mL	2 µg/mL	1 µg/mL	–	–	> 128 µg/mL	2 µg/mL	–	–	1 µg/mL	0.0625 µg/mL	–	–

Continued, in another order:

Antibiogram, antibiotic concentration (MIC) [1]	Antibiogram, antibiotic concentration (MIC) [2]	Antibiogram, antibiotic concentration (MIC) [3]	Antibiogram, antibiotic concentration (MIC) [4]	Antibiogram, antibiotic concentration (MIC) [5]	Antibiogram, antibiotic concentration (MIC) [6]	Antibiogram, antibiotic concentration (MIC) [7]	Antibiogram, antibiotic concentration (MIC) [8]	Antibiogram, antibiotic concentration (MIC) [9]	Antibiogram, antibiotic concentration (MIC) [10]	Antibiogram, antibiotic concentration (MIC) [11]	Antibiogram, antibiotic concentration (MIC) [13]	Molecule	concentration at which 10% haemolysis is achieved [12]	haemolysis at the highest concentration tested 400 µg/ml [12]
< 0.5 µg/mL	> 128 µg/mL	1 µg/mL	> 128 µg/mL	32 µg/mL	16 µg/mL	128 µg/mL	< 0.5 µg/mL	8 µg/mL	> 128 µg/mL	512 µg/mL	–	CC(C)(O/N=C(\C(=O)N[C@@H]1C(=O)N2C(C(=O)[O-])=C(C[n+]3ccccc3)CS[C@H]12)c1csc(N)n1)C(=O)O [Ceftazidime]	–	–
0.5 µg/mL	256 µg/mL	4 µg/mL	> 512 µg/mL	4 µg/mL	0.25 µg/mL	0.25 µg/mL	0.25 µg/mL	0.25 µg/mL	4 µg/mL	4 µg/mL	1 µg/mL	CNC(C)C1CCC(N)C(OC2C(N)CC(N)C(OC3OCC(C)(O)C(NC)C3O)C2O)O1 (centres unmarked) [Gentamicin]	–	–
4 µg/mL	64 µg/mL	2 µg/mL	64 µg/mL	4 µg/mL	0.25 to 0.5 µg/mL	0.5 µg/mL	8 µg/mL	0.25 µg/mL	64 µg/mL	64 µg/mL	16 µg/mL	NC[C@H]1O[C@H](O[C@H]2[C@H](O)[C@@H](O[C@H]3O[C@H](CO)[C@@H](O)[C@H](N)[C@H]3O)[C@H](N)C[C@@H]2N)[C@H](N)C[C@@H]1O [Tobramycin]	–	–
0.5 µg/mL	64 µg/mL	0.5 µg/mL	128 µg/mL	2 µg/mL	1 µg/mL	64 µg/mL	< 0.5 µg/mL	128 µg/mL	1 µg/mL	0.5 µg/mL	≤ 0.125 µg/mL	O=C(O)c1cn(C2CC2)c2cc(N3CCNCC3)c(F)cc2c1=O [Ciprofloxacin]	–	–
